For assay [1], the target named is BACE 1 (Beta Secretase enzyme) (Homo sapiens, UniProt P56817). The assay is described as follows: In vitro enzymatic BACE FRET assay. The format is biochemical. The procedure, abridged: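 BACE activity read by FRET: peptide substrate (50 nM) carrying fluorophore and quencher across the cleavage site, incubated one hour in 0.05 M acetate pH 4.2, 10% DMSO final, 100 uM genapol. Tris addition raises pH to neutrality to stop the reaction before fluorescence is read.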

In assay [2] the test system is Aβ40 in conditioned medium of cells stably expressing Amyloid Precursor Protein (APP). The assay is described as follows: In vitro BACE cell-based assay (HEK cell assay), Aβ40 sandwich ELISA. Particulars: Homo sapiens, HEK293, 24 h, IC50 range symbols, Table 1; Aβ40, 24 h incubation; read-out: HEK cell assay. The procedure, abridged:
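Cells stably expressing APP received 10-point compound dilutions (top 100 μM or 10 μM; 0.1% DMSO) for 24 h. Secreted Aβ40 was quantified by sandwich ELISA (pAb40 capture, biotinylated 6E10 detection, europium time-resolved fluorescence). IC50 was derived from percent inhibition versus concentration.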
(In an ELISA, binding on a coated surface is turned into a signal by an enzyme label.)

Setting [3] is: IC50 range symbols, Table 1, read-out: BACE 1 FRET assay.
Setting [4] is: bound stated, read-out: IC50 value in the FRET BACE enzyme assay.

Read-outs that look alike come from different tables or passages of the source.

Sequence of BACE 1 (Beta Secretase enzyme) (P56817 46-501, species assumed): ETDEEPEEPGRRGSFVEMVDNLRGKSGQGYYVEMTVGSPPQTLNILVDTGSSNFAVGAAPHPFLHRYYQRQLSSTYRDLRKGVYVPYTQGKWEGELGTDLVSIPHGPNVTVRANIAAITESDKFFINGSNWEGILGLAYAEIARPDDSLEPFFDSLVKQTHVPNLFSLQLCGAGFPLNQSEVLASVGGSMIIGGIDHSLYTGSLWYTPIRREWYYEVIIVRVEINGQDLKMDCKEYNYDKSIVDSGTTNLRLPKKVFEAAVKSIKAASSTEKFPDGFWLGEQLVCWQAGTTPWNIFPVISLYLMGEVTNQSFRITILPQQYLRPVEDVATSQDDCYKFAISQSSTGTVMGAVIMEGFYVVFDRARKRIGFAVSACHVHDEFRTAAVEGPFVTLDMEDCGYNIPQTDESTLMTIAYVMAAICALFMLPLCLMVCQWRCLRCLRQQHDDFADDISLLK

Turning to `Cc1ccccc1-c1ccc2nc(N)c(CCC(=O)N3CCC(F)(F)C3)cc2c1` [Example 134, 3-(2-amino-6-o-tolylquinolin-3-yl)-1-(3,3-difluoropyrrolidin-1-yl)propan-1-one], the IC50 in assay [1] (setting [3]) is 1000 to 5000 nM; in assay [2] it was greater than 5000 nM.
For the compound `Cc1ccccc1-c1cc2cc(CCC(=O)NCCC(C)(C)C)c(N)nc2cn1` [Example 135, 3-(2-amino-6-o-tolyl-1,7-naphthyridin-3-yl)-N-(3,3-dimethylbutyl)propanamide], the figures for the IC50 in assay [1] (setting [3]), in assay [1] (setting [4]) and in assay [2] were less than 500 nM, less than 50 nM and greater than 5000 nM, respectively.
The corresponding values for `Cc1ccccc1-c1cc2cc(CC(C)C(=O)NCc3ccccc3)c(N)nc2cn1` (centres unmarked) [Example 136, 3-(2-amino-6-o-tolyl-1,7-naphthyridin-3-yl)-N-benzyl-2-methylpropanamide] are less than 500 nM, less than 50 nM and 1000 to 5000 nM.
Consider `Cc1ccccc1-c1cc2cc(CC(C)C(=O)NCCC(F)(F)F)c(N)nc2cn1` (centres unmarked) [Example 137, 3-(2-amino-6-o-tolyl-1,7-naphthyridin-3-yl)-2-methyl-N-(3,3,3-trifluoropropyl)propanamide], for which the IC50 was less than 500 nM in assay [1] (setting [3]) and greater than 5000 nM in assay [2].
For `Cc1ccccc1-c1cc2cc(CC(C)C(=O)NCCC(C)(C)C)c(N)nc2cn1` (centres unmarked) [Example 138, 3-(2-amino-6-o-tolyl-1,7-naphthyridin-3-yl)-N-(3,3-dimethylbutyl)-2-methylpropanamide], the IC50 is less than 500 nM in assay [1] (setting [3]), less than 50 nM in assay [1] (setting [4]) and less than 500 nM in assay [2].
As to `Cc1ccccc1-c1ccc2nc(N)c(CCC(=O)NCc3ccnnc3)cc2c1` [Example 139, 3-(2-amino-6-o-tolylquinolin-3-yl)-N-(pyridazin-4-ylmethyl)propanamide], the IC50 in assay [1] (setting [3]) is 1000 to 5000 nM; in assay [2] it was greater than 5000 nM.
As for `Cc1ccccc1-c1ccc2nc(N)c(CCC(=O)NCC3CCCCC3)nc2c1` [Example 140, 3-(3-amino-7-(2-methylphenyl)-2-quinoxalinyl)-N-(cyclohexylmethyl)propanamide], the figures for the IC50 in assay [1] (setting [3]) and in assay [2] were less than 500 nM and 1000 to 5000 nM, respectively.
With `Cc1ccccc1-c1ccc2nc(N)c(CCC(=O)NCCC(C)(C)O)cc2c1` [Example 141, 3-(2-amino-6-(2-methylphenyl)-3-quinolinyl)-N-(3-hydroxy-3-methylbutyl)propanamide], the values for the IC50 in assay [1] (setting [3]) and in assay [2] were less than 500 nM and 500 to 1000 nM, respectively.
For `CC(Cc1cc2cc(-c3ccccc3C#N)ccc2nc1N)C(=O)NC1CCOC(C)(C)C1` (centres unmarked) [Example 142, 3-(2-amino-6-(2-cyanophenyl)-3-quinolinyl)-N-(2,2-dimethyltetrahydro-2H-pyran-4-yl)-2-methylpropanamide], the IC50 in assay [1] (setting [3]) and in assay [2] was less than 500 nM in each case.
As for `CC(=O)c1ccccc1-c1ccc2nc(N)c(CC(C)C(=O)NC3CCOC(C)(C)C3)cc2c1` (centres unmarked) [Example 143, 3-(6-(2-acetylphenyl)-2-amino-3-quinolinyl)-N-(2,2-dimethyltetrahydro-2H-pyran-4-yl)-2-methylpropanamide], the IC50 in assay [1] (setting [3]) and in assay [2] was less than 500 nM each time.
On to `Cc1ccccc1-c1ccc2nc(N)c(CCC(=O)NCC(C)(C)O)cc2c1` [Example 144, 3-(2-amino-6-(2-methylphenyl)-3-quinolinyl)-N-(2-hydroxy-2-methylpropyl)propanamide], for which the IC50 in assay [1] (setting [3]) and in assay [2] was 1000 to 5000 nM each time.
With `CC(Cc1cc2cc(-c3ccccc3C(=O)C3CCCCC3)ccc2nc1N)C(=O)NC1CCOC(C)(C)C1` (centres unmarked) [Example 147, 3-(2-amino-6-(2-(cyclohexylcarbonyl)phenyl)-3-quinolinyl)-N-(2,2-dimethyltetrahydro-2H-pyran-4-yl)-2-methylpropanamide], the IC50 in assay [1] (setting [3]) and in assay [2] was less than 500 nM throughout.
Turning to `CNC(=O)C(C)Cc1cc2cc(-c3c(C)cccc3C(=O)N3CCCC3)ccc2nc1N` (centres unmarked) [Example 148, 3-(2-Amino-6-(2-methyl-6-(pyrrolidine-1-carbonyl)phenyl)quinolin-3-yl)-N, 2-dimethylpropanamide], the IC50 in assay [1] (setting [3]) and in assay [2] was less than 500 nM throughout.

Values taken from patent US9296698B2, “Amino heteroaryl compounds as beta-secretase modulators and methods of use” (Amgen Inc., priority 2009, dated 2016).
